Results as given in patent US4267112A, “Antibiotic U-58,431” (The Upjohn Company, priority 1979, dated 1981).

Tests used:
[1] = system: various Gram-positive and Gram-negative bacteria; test: antibacterial activity (general statement); format: cell-based
Protocol: (§1) The antibacterial assay is a standard microbiological broth assay. The MIC is determined by standard methods using two-fold dilutions of the antibiotic in Brian Heart Infusion Broth (Difco Lab., Detroit, Michigan). The inocula are overnight cultures of the test organisms, diluted so that the final population contains approximately 10^5 cells/ml. The tubes are incubated at 28° to 37° C. for 42 hours. The lowest antibiotic concentration which allows no growth=MIC or minimum inhibitory concentration.

Proteus vulgaris UC 93 = test: antibacterial broth MIC assay; format: cell-based; conditions: Brain Heart Infusion Broth, 42 hours
Protocol: as §1

[2] = system: Streptococcus hemolyticus UC 152; test: antibacterial broth MIC assay; format: cell-based; conditions: Brain Heart Infusion Broth, 42 hours
Protocol: as §1

[3] = system: Klebsiella pneumoniae UC 58; test: antibacterial broth MIC assay; format: cell-based; conditions: Brain Heart Infusion Broth, 42 hours
Protocol: as §1

[4] = system: Salmonella schottmuelleri UC 126; test: antibacterial broth MIC assay; format: cell-based; conditions: Brain Heart Infusion Broth, 42 hours
Protocol: as §1

[5] = system: Diplococcus pneumoniae UC 41; test: antibacterial broth MIC assay; format: cell-based; conditions: Brain Heart Infusion Broth, 42 hours
Protocol: as §1

[6] = system: Streptococcus faecalis UC 694; test: antibacterial broth MIC assay; format: cell-based; conditions: Brain Heart Infusion Broth, 42 hours
Protocol: as §1

[7] = system: Staphylococcus aureus UC 746; test: antibacterial broth MIC assay; format: cell-based; conditions: Brain Heart Infusion Broth, 42 hours
Protocol: as §1

[8] = system: Staphylococcus aureus UC 570; test: antibacterial broth MIC assay; format: cell-based; conditions: Brain Heart Infusion Broth, 42 hours
Protocol: as §1

Escherichia coli UC 45 = test: antibacterial broth MIC assay; format: cell-based; conditions: Brain Heart Infusion Broth, 42 hours
Protocol: as §1

[9] = system: Staphylococcus aureus 284 UC 76; test: antibacterial broth MIC assay; format: cell-based; conditions: Brain Heart Infusion Broth, 42 hours
Protocol: as §1

[10] = system: Pseudomonas aeruginosa UC 95; test: antibacterial broth MIC assay; format: cell-based; conditions: Brain Heart Infusion Broth, 42 hours
Protocol: as §1

fungi = test: antifungal activity (general statement); format: cell-based
Protocol: (§2) An agar dilution method is used. 100 mg amounts of material is solubilized in 1 ml of dimethylformamide (DMF) and diluted to 10 ml with mycophil Broth (BBL labs.) unless completely soluble in water. The material to be tested is incorporated in melted (48° C.) mycophil Agar at concentrations of 1000, 100, 10 and 1 mcg/ml. Fifteen ml of agar is pipetted into a petri dish. After solidification, the surface is streaked with agar spore suspensions of human fungal pathogens. The suspensions are made by adding 10 ml sterile distilled water to agar slants of the test organisms. The slant surface is scraped with a sterile inoculating needle, and 0.5 ml of this suspension is added to 9.5 ml melted (48° C.) mycophil Agar in a stamp streak well. (Each stamp streak base has 6 wells.)
The streaked plates are incubated at 28° C. for 72 hours at which time results are recorded. Readings are by visual observation.

P. vulgaris = test: activity against P. vulgaris (general statement); format: cell-based
Protocol: as §1

[11] = system: Trichophyton mentagrophytes UC 4797; test: antifungal agar dilution test; format: cell-based; parameters: key: -: inhibition; +: no inhibition; conditions: 28° C., 72 hours
Protocol: as §2, with “The antifungal spectrum for antibiotic U-58,431 was conducted on a standard agar […] assay. The results are as follows: An” for “An”, “slants” left out, “wells.) The streaked plates are incubated at 28° C. for 72 hours at which time results are recorded. Readings are by visual observation.” for “wells.)”

[12] = system: Nocardia asteroides UC 2052; test: antifungal agar dilution test; format: cell-based; parameters: key: -: inhibition; +: no inhibition; conditions: 28° C., 72 hours
Protocol: as §2, with “The antifungal spectrum for antibiotic U-58,431 was conducted on a standard agar […] assay. The results are as follows: An” for “An”, “slants” left out, “wells.) The streaked plates are incubated at 28° C. for 72 hours at which time results are recorded. Readings are by visual observation.” for “wells.)”

Geotrichum sp. UC 1207 = test: antifungal agar dilution test; format: cell-based; parameters: key: -: inhibition; +: no inhibition; conditions: 28° C., 72 hours
Protocol: as §2, with “The antifungal spectrum for antibiotic U-58,431 was conducted on a standard agar […] assay. The results are as follows: An” for “An”, “slants” left out, “wells.) The streaked plates are incubated at 28° C. for 72 hours at which time results are recorded. Readings are by visual observation.” for “wells.)”

[13] = system: Cryptococcus neoformans UC 4869; test: antifungal agar dilution test; format: cell-based; parameters: key: -: inhibition; +: no inhibition; conditions: 28° C., 72 hours
Protocol: as §2, with “The antifungal spectrum for antibiotic U-58,431 was conducted on a standard agar […] assay. The results are as follows: An” for “An”, “slants” left out, “wells.) The streaked plates are incubated at 28° C. for 72 hours at which time results are recorded. Readings are by visual observation.” for “wells.)”

[14] = system: Trichophyton rubrum UC 1458; test: antifungal agar dilution test; format: cell-based; parameters: key: -: inhibition; +: no inhibition; conditions: 28° C., 72 hours
Protocol: as §2, with “The antifungal spectrum for antibiotic U-58,431 was conducted on a standard agar […] assay. The results are as follows: An” for “An”, “slants” left out, “wells.) The streaked plates are incubated at 28° C. for 72 hours at which time results are recorded. Readings are by visual observation.” for “wells.)”

[15] = system: Cryptococcus neoformans UC 1139; test: antifungal agar dilution test; format: cell-based; parameters: key: -: inhibition; +: no inhibition; conditions: 28° C., 72 hours
Protocol: as §2, with “The antifungal spectrum for antibiotic U-58,431 was conducted on a standard agar […] assay. The results are as follows: An” for “An”, “slants” left out, “wells.) The streaked plates are incubated at 28° C. for 72 hours at which time results are recorded. Readings are by visual observation.” for “wells.)”

[16] = system: Trichophyton mentagrophytes UC 4860; test: antifungal agar dilution test; format: cell-based; parameters: key: -: inhibition; +: no inhibition; conditions: 28° C., 72 hours
Protocol: as §2, with “The antifungal spectrum for antibiotic U-58,431 was conducted on a standard agar […] assay. The results are as follows: An” for “An”, “slants” left out, “wells.) The streaked plates are incubated at 28° C. for 72 hours at which time results are recorded. Readings are by visual observation.” for “wells.)”

Candida albicans UC 7163 = test: antifungal agar dilution test; format: cell-based; parameters: key: -: inhibition; +: no inhibition; conditions: 28° C., 72 hours
Protocol: as §2, with “The antifungal spectrum for antibiotic U-58,431 was conducted on a standard agar […] assay. The results are as follows: An” for “An”, “slants” left out, “wells.) The streaked plates are incubated at 28° C. for 72 hours at which time results are recorded. Readings are by visual observation.” for “wells.)”

[17] = system: Sporotrichum schenckii UC 1364; test: antifungal agar dilution test; format: cell-based; parameters: key: -: inhibition; +: no inhibition; conditions: 28° C., 72 hours
Protocol: as §2, with “The antifungal spectrum for antibiotic U-58,431 was conducted on a standard agar […] assay. The results are as follows: An” for “An”, “slants” left out, “wells.) The streaked plates are incubated at 28° C. for 72 hours at which time results are recorded. Readings are by visual observation.” for “wells.)”

[18] = system: Trichophyton violaceum UC 1459; test: antifungal agar dilution test; format: cell-based; parameters: key: -: inhibition; +: no inhibition; conditions: 28° C., 72 hours
Protocol: as §2, with “The antifungal spectrum for antibiotic U-58,431 was conducted on a standard agar […] assay. The results are as follows: An” for “An”, “slants” left out, “wells.) The streaked plates are incubated at 28° C. for 72 hours at which time results are recorded. Readings are by visual observation.” for “wells.)”

[19] = system: Hormodendrum compactum UC 1222; test: antifungal agar dilution test; format: cell-based; parameters: key: -: inhibition; +: no inhibition; conditions: 28° C., 72 hours
Protocol: as §2, with “The antifungal spectrum for antibiotic U-58,431 was conducted on a standard agar […] assay. The results are as follows: An” for “An”, “slants” left out, “wells.) The streaked plates are incubated at 28° C. for 72 hours at which time results are recorded. Readings are by visual observation.” for “wells.)”

[20] = system: Blastomyces dermatidis UC 1466; test: antifungal agar dilution test; format: cell-based; parameters: key: -: inhibition; +: no inhibition; conditions: 28° C., 72 hours
Protocol: as §2, with “The antifungal spectrum for antibiotic U-58,431 was conducted on a standard agar […] assay. The results are as follows: An” for “An”, “slants” left out, “wells.) The streaked plates are incubated at 28° C. for 72 hours at which time results are recorded. Readings are by visual observation.” for “wells.)”

[21] = system: Trichophyton asteroides UC 4775; test: antifungal agar dilution test; format: cell-based; parameters: key: -: inhibition; +: no inhibition; conditions: 28° C., 72 hours
Protocol: as §2, with “The antifungal spectrum for antibiotic U-58,431 was conducted on a standard agar […] assay. The results are as follows: An” for “An”, “slants” left out, “wells.) The streaked plates are incubated at 28° C. for 72 hours at which time results are recorded. Readings are by visual observation.” for “wells.)”

Candida albicans UC 7164 = test: antifungal agar dilution test; format: cell-based; parameters: key: -: inhibition; +: no inhibition; conditions: 28° C., 72 hours
Protocol: as §2, with “The antifungal spectrum for antibiotic U-58,431 was conducted on a standard agar […] assay. The results are as follows: An” for “An”, “slants” left out, “wells.) The streaked plates are incubated at 28° C. for 72 hours at which time results are recorded. Readings are by visual observation.” for “wells.)”

solubilities = format: physicochemical

C[C@H]1O[C@@H]2C3=C(C(=O)C(=N)C(C(N)=O)=C3O)[C@@]1(O)C[C@H]2O [U-58,431]
activity against Gram-positive and Gram-negative bacteria [1]: active
Minimum Inhibitory Concentration (Proteus vulgaris UC 93): 250 µg/mL
Minimum Inhibitory Concentration [2]: 125 µg/mL
Minimum Inhibitory Concentration [3]: 125 µg/mL
Minimum Inhibitory Concentration [4]: 62.5 µg/mL
Minimum Inhibitory Concentration [5]: 1.0 µg/mL
Minimum Inhibitory Concentration [6]: 250 µg/mL
Minimum Inhibitory Concentration [7]: 125 µg/mL
Minimum Inhibitory Concentration [8]: 125 µg/mL
Minimum Inhibitory Concentration (Escherichia coli UC 45): 250 µg/mL
Minimum Inhibitory Concentration [9]: 125 µg/mL
Minimum Inhibitory Concentration [10]: 125 µg/mL
activity against fungi (fungi): active
activity against P. vulgaris (P. vulgaris): active
inhibition at indicated concentration ([11]; 1 mcg/ml): +
inhibition at indicated concentration ([11]; 10 mcg/ml): +
inhibition at indicated concentration ([11]; 100 mcg/ml): +
inhibition at indicated concentration ([11]; 1000 mcg/ml): -
inhibition at indicated concentration ([12]; 1 mcg/ml): +
inhibition at indicated concentration ([12]; 10 mcg/ml): +
inhibition at indicated concentration ([12]; 100 mcg/ml): +
inhibition at indicated concentration ([12]; 1000 mcg/ml): -
inhibition at indicated concentration (Geotrichum sp. UC 1207; 1 mcg/ml): +
inhibition at indicated concentration (Geotrichum sp. UC 1207; 10 mcg/ml): +
inhibition at indicated concentration (Geotrichum sp. UC 1207; 100 mcg/ml): +
inhibition at indicated concentration (Geotrichum sp. UC 1207; 1000 mcg/ml): +
inhibition at indicated concentration ([13]; 1 mcg/ml): +
inhibition at indicated concentration ([13]; 10 mcg/ml): +
inhibition at indicated concentration ([13]; 100 mcg/ml): +
inhibition at indicated concentration ([13]; 1000 mcg/ml): +
inhibition at indicated concentration ([14]; 1 mcg/ml): +
inhibition at indicated concentration ([14]; 10 mcg/ml): +
inhibition at indicated concentration ([14]; 100 mcg/ml): +
inhibition at indicated concentration ([14]; 1000 mcg/ml): -
inhibition at indicated concentration ([15]; 1 mcg/ml): +
inhibition at indicated concentration ([15]; 10 mcg/ml): +
inhibition at indicated concentration ([15]; 100 mcg/ml): +
inhibition at indicated concentration ([15]; 1000 mcg/ml): +
inhibition at indicated concentration ([16]; 1 mcg/ml): +
inhibition at indicated concentration ([16]; 10 mcg/ml): +
inhibition at indicated concentration ([16]; 100 mcg/ml): +
inhibition at indicated concentration ([16]; 1000 mcg/ml): +
inhibition at indicated concentration (Candida albicans UC 7163; 1 mcg/ml): +
inhibition at indicated concentration (Candida albicans UC 7163; 10 mcg/ml): +
inhibition at indicated concentration (Candida albicans UC 7163; 100 mcg/ml): +
inhibition at indicated concentration (Candida albicans UC 7163; 1000 mcg/ml): +
inhibition at indicated concentration ([17]; 1 mcg/ml): +
inhibition at indicated concentration ([17]; 10 mcg/ml): +
inhibition at indicated concentration ([17]; 100 mcg/ml): +
inhibition at indicated concentration ([17]; 1000 mcg/ml): +
inhibition at indicated concentration ([18]; 1 mcg/ml): +
inhibition at indicated concentration ([18]; 10 mcg/ml): +
inhibition at indicated concentration ([18]; 100 mcg/ml): +
inhibition at indicated concentration ([18]; 1000 mcg/ml): +
inhibition at indicated concentration ([19]; 1 mcg/ml): +
inhibition at indicated concentration ([19]; 10 mcg/ml): +
inhibition at indicated concentration ([19]; 100 mcg/ml): +
inhibition at indicated concentration ([19]; 1000 mcg/ml): +
inhibition at indicated concentration ([20]; 1 mcg/ml): +
inhibition at indicated concentration ([20]; 10 mcg/ml): +
inhibition at indicated concentration ([20]; 100 mcg/ml): +
inhibition at indicated concentration ([20]; 1000 mcg/ml): +
inhibition at indicated concentration ([21]; 1 mcg/ml): +
inhibition at indicated concentration ([21]; 10 mcg/ml): +
inhibition at indicated concentration ([21]; 100 mcg/ml): +
inhibition at indicated concentration ([21]; 1000 mcg/ml): +
inhibition at indicated concentration (Candida albicans UC 7164; 1 mcg/ml): +
inhibition at indicated concentration (Candida albicans UC 7164; 10 mcg/ml): +
inhibition at indicated concentration (Candida albicans UC 7164; 100 mcg/ml): +
inhibition at indicated concentration (Candida albicans UC 7164; 1000 mcg/ml): +
solubility (solubilities; chloroform): slightly soluble
solubility (solubilities; cold methylene chloride): slightly soluble
solubility (solubilities; ethanol): soluble
solubility (solubilities; methanol): soluble
solubility (solubilities; water): soluble
